Assay results reported in ChEMBL document CHEMBL4421722, “Inhibitors of protein prenyltransferases” (2013).

Key:
Jurkat = assay: Antiproliferative activity against human Jurkat cells assessed as inhibition of cell proliferation incubated for 72 hrs by CCK8 assay; format: functional, cell-based
[1] = Inhibition of rat recombinant geranylgeranyltransferase type I expressed in Escherichia coli assessed as reduction in geranylgeranylation of RhoA incubated for 30 mins in presence of [3H]GGPP by scintillation counting assay relative to control
K562 = assay: Antiproliferative activity against human K562 cells assessed as inhibition of cell proliferation incubated for 72 hrs by CCK8 assay; format: functional, cell-based; details: K562, 72 h
[2] = Inhibition of rat recombinant geranylgeranyltransferase type I expressed in Escherichia coli assessed as reduction in geranylgeranylation of K-Ras4B incubated for 30 mins in presence of [3H]GGPP by scintillation counting assay
Rattus norvegicus [3] = species on record: Rattus norvegicus; assay: Inhibition of rat recombinant geranylgeranyltransferase type I expressed in Escherichia coli assessed as residual enzyme activity for geranylgeranylation of K-Ras4B at 50 uM incubated for 30 mins in presence of [3H]GGPP by scintillation counting assay relative to control
Rattus norvegicus [4] = species on record: Rattus norvegicus; assay: Inhibition of rat recombinant geranylgeranyltransferase type I expressed in Escherichia coli assessed as residual enzyme activity for geranylgeranylation of RhoA at 50 uM incubated for 30 mins in presence of [3H]GGPP by scintillation counting assay relative to control

| Structure (SMILES) | IC50 [1] [µM] | Activity (Rattus norvegicus [3]) [%] | Activity (Rattus norvegicus [4]) [%] | further results |
| --- | --- | --- | --- | --- |
| Cc1ccccc1S(=O)(=O)N1[C@@H](c2cccc(Cl)c2)C(C(N)=O)=CC[C@H]1c1ccc(Cl)cc1 | > 20 | – | – | GI50 (Jurkat): 5.36 µM |
| O=C(N[C@@H](Cc1ccccc1)C(=O)O)C1=CC[C@@H](c2cccc(Cl)c2)N(S(=O)(=O)c2ccc(Br)cc2)[C@H]1c1cccc(Br)c1 | 0.032 | – | – | – |
| NC(=O)[C@H](Cc1ccccc1)NC(=O)C1=CC[C@@H](c2cccc(Cl)c2)N(S(=O)(=O)c2ccc(Br)cc2)[C@H]1c1cccc(Cl)c1 | 1.3 to 20 | – | – | GI50 (Jurkat): 3.57 to 4.86 µM; GI50 (K562): 7.69 to 10.3 µM |
| O=C(O)C1=CC[C@@H](c2cccc(Br)c2)N(S(=O)(=O)c2ccc(Cl)cc2)[C@H]1c1cccc(F)c1 | 0.841 | – | – | – |
| CC[C@@H]1C=C(C(=O)O)[C@H](c2ccc(F)cc2)N1S(=O)(=O)c1ccc(C)cc1 | 200 | – | – | IC50 [2]: 250 µM |
| O=C(O)C1=CC[C@@H](c2cccc(Br)c2)N(S(=O)(=O)c2ccc(Cl)cc2)[C@H]1c1cccc(Cl)c1 | 0.125 to 0.154 | – | – | – |
| CCOC(=O)C1=C[C@@H](C(C)(C)C)N(S(=O)(=O)c2ccccc2C)[C@H]1c1ccc(Cl)cc1 | – | – | – | IC50 (K562): > 25 µM |
| Cc1ccc(S(=O)(=O)N2[C@@H](c3ccccc3)C(C(=O)O)=CC[C@H]2c2ccc(F)cc2)cc1 | 120 | – | – | IC50 [2]: 80 µM |
| O=C(O)C1=CC[C@@H](c2cccc(Cl)c2)N(S(=O)(=O)c2ccc(Br)cc2)[C@H]1c1cccc(Br)c1 | 0.155 to 0.169 | – | – | – |
| O=C(O)C1=CC[C@@H](c2cccc(Cl)c2)N(S(=O)(=O)c2ccc(Cl)cc2)[C@H]1c1cccc(Cl)c1 | 0.241 | – | – | – |
| Cc1cccc([C@@H]2CC=C(C(=O)O)[C@H](c3cccc(Br)c3)N2S(=O)(=O)c2ccc(Br)cc2)c1 | 0.33 | – | – | – |
| COC(=O)[C@H](CC(C)C)NC(=O)c1ccc(NCc2cnc[nH]2)cc1-c1ccccc1C | 0.5 | – | – | IC50 [2]: 0.6 µM |
| CCCCCS[C@H]1[C@@H](C(=O)O)[C@H](c2cccc(F)c2)N(S(=O)(=O)c2ccc(C)cc2)[C@@H]1CCCC | – | 23.5 | 7.1 | – |
| Cc1ccc(S(=O)(=O)N2C[C@@H](C(=O)O)[C@H](Sc3ccc(Cl)cc3)C[C@H]2c2cccc(Br)c2)cc1 | – | 20.4 to 22.8 | 0.2 to 3.2 | – |
| Cc1ccc(S(=O)(=O)N2C[C@@H](C(=O)O)[C@H](SCCc3ccccc3)C[C@H]2c2ccccc2)cc1 | – | 15.2 to 16.5 | 5.8 | – |
| C=CCS[C@H]1[C@@H](C(=O)O)[C@H](c2ccc(Cl)cc2)N(S(=O)(=O)c2ccccc2C)[C@@H]1CCCC | – | 23.1 | 8.4 | – |
| CCCCS[C@@H]1C[C@@H](c2ccc(C)cc2)N(S(=O)(=O)c2ccccc2C)C[C@H]1C(=O)O | – | 43.5 to 43.7 | 19.8 | – |
| CC(C)(C)[C@@H]1C=C(C(=O)N[C@@H](Cc2ccccc2)C(N)=O)[C@H](c2ccc(Cl)c(Cl)c2)N1S(=O)(=O)c1c(Cl)cccc1Cl | > 50 | – | – | GI50 (Jurkat): 4.91 to 5.28 µM |
| CCC[C@@H]1[C@@H](Sc2ccc(OC)cc2)[C@@H](C(=O)O)[C@H](c2cccc(F)c2)N1S(=O)(=O)c1ccc(C)cc1 | – | 27.4 | 3.5 | – |
| CCc1ccc([C@@H]2C[C@@H](SCCc3ccccc3)[C@H](C(=O)O)CN2S(=O)(=O)c2ccc(C)cc2)cc1 | – | 2.3 to 3 | 2.9 | – |
| Cc1ccc(S(=O)(=O)N2C[C@@H](C(=O)O)[C@H](SCCC(C)C)C[C@H]2c2cccc(Br)c2)cc1 | – | 13.7 to 19.2 | 2.3 | – |
| O=C(O)C1=CC[C@@H](c2cccc(Br)c2)N(S(=O)(=O)c2ccc(Br)cc2)[C@H]1c1cccc(Br)c1 | 0.525 | – | – | – |
| Cc1ccc(S(=O)(=O)N2[C@H](CC3CCCC3)[C@@H](SCCC(=O)OC(C)(C)C)[C@@H](C(=O)O)[C@@H]2c2ccc(Cl)c(Cl)c2)cc1 | – | 16.1 | 7.3 | – |
| Cc1ccc(S(=O)(=O)N2C[C@@H](C(=O)O)[C@H](SCCc3ccccc3)C[C@H]2c2ccccc2F)cc1 | – | 3.4 to 6.8 | 3.1 | – |
| C=CCS[C@H]1[C@@H](C(=O)O)[C@H](c2ccc(Br)cc2)N(S(=O)(=O)c2ccc(C)cc2)[C@@H]1CCCCCC | – | 15.5 | 5.5 | – |
| CCCCS[C@H]1[C@@H](C(=O)O)[C@H](c2cccc(F)c2)N(S(=O)(=O)c2ccc(C)cc2)[C@@H]1CCCC | – | 23.5 | 7.1 | – |
| Cc1ccc(S(=O)(=O)N2C[C@@H](C(=O)O)[C@H](Sc3ccc(Cl)cc3)C[C@H]2c2ccc(Cl)cc2)cc1 | – | 52.1 | 4.9 | – |
| NC(=O)[C@H](Cc1ccccc1)NC(=O)C1=CC[C@@H](c2cccc(Cl)c2)N(S(=O)(=O)c2ccc(Br)cc2)[C@H]1c1cccc(Br)c1 | > 20 | – | – | – |
| CCOc1ccc([C@@H]2C[C@@H](SCCc3ccccc3)[C@H](C(=O)O)CN2S(=O)(=O)c2ccc(C)cc2)cc1 | – | 24.6 to 37.2 | 14.5 | – |
| Cc1ccc([C@@H]2C[C@@H](SCc3ccc(Cl)cc3)[C@H](C(=O)O)CN2S(=O)(=O)c2ccccc2C)cc1 | – | 19.6 to 20.4 | 10.5 | – |
